According to patent US20030044413A1, “Methods of limiting apoptosis of cells” (Regents of the University of Minnesota, priority 1998, published 2003):
Where “and” joins values, the source holds several entries; their conditions need not be identical. Identical values can stand only once. Entries after “also recorded” stand apart in the source; their conditions may differ.

Legend:
astrocytes = experiment: Unconjugated bilirubin-induced apoptosis in astrocytes; assay type: cell-based, rat; details: for apoptosis, increase over control values: 4 hours
[1] = system: isolated rat liver mitochondria; experiment: MPT spectrophotometric assay (mitochondrial swelling); details: for effect on DCA-induced MPT / mitochondrial swelling: preincubation (500 μM bile acid or cyclosporine A) before DCA
Procedure: Isolation of mitochondria and MPT assays. Low calcium liver mitochondria were isolated from male 200-250 g Sprague-Dawley rats by density gradient centrifugation as previously published (Botla et al., J. Pharmacol. Exp. Ther., 272, 930-938 (1995); Walajtys-Rhode et al., J. Biol. Chem., 267, 370-379 (1992); and Sokol et al., Gastroenterology, 99, 1061-1071 (1990)). The mitochondrial fraction was resuspended in 30 ml of wash buffer containing 0.1 M KCl, 5 mM 3-(N-morpholino)-propane sulfonic acid (MOPS), and 1 mM EGTA, at pH 7.4 and centrifuged at 7,000×g for 10 min at 4° C. A final wash was carried out in chelex-100-treated buffer (Bio-Rad Laboratories, Hercules, Calif.) containing no EGTA. The resulting pellet was suspended in 4 ml of chelex--100-treated buffer containing 125 mM sucrose, 5 mM HEPES, 50 mM KCl and 2 mM KH2PO4. The usual yield of mitochondria was approximately 25 mg of protein per gram of liver tissue. Mitochondrial purity was established as previously described (Botla et al., J. Pharmacol. Exp. Ther., 272, 930-938 (1995)). Protein concentrations were determined using the Bio-Rad protein assay kit as specified by the manufacturer.
MPT was measured spectrophotometrically as described previously (Botla et al., J. Pharmacol. Exp. Ther., 272, 930-938 (1995); Pastorino et al., J. Biol. Chem., 268, 13791-13798 (1993)), during 10 min incubations at 25° C. using mitochondria (1 mg of protein/ml) suspended in 3 ml of a chelex-100-treated buffer containing 0.1 M NaCl, 10 mM MOPS, pH 7.4. Swelling was monitored at 540 nm in a Beckman DU 64 spectrophotometer. Basal values of mitochondria absorbance were measured for 5 min, and the optical density was monitored another 5 min after addition of 200 μM DCA or 80 μM phenylarsine oxide (PhAsO; Sigma Chemical Co.). For coincubation studies, mitochondria were preincubated with 500 μM UDCA or hyodeoxycholic acid for 5 min at 25° C. prior to the assay.
Spectrophotometric and Fluorimetric Assays of MPT. The MPT was assessed using a spectrophotometric assay measuring high amplitude rapid changes in mitochondrial volume, and a fluorimetric assay quantitating the release of calcein from calcein-loaded mitochondria. The MPT was measured spectrophotometrically as previously described (Pastorino, J. Biol. Chem., 268, 13791-13798 (1993); Botla et al., J. Pharmacol. Exp. Ther., 272, 930-938 (1995)). Briefly, mitochondria (3 mg protein) were incubated in 3 ml of chelex-100-treated respiration buffer (0.1 M NaCl, 10 mM MOPS, pH 7.4) for 10 min at 25° C. and monitored at 540 nm in a Beckman DU 64 spectrophotometer. Basal values of mitochondrial absorbance were measured for 5 min, and the optical density was monitored for an additional 5 min after addition of increasing concentrations of DCA (50-200 μM) or 80 μM phenylarsine oxide (PhAsO; Sigma Chemical Co., St. Louis, Mo.). For the coincubation studies, mitochondria were preincubated with UDCA (100-500 μM), or 500 μM hyodeoxycholic acid (HDCA; Sigma Chemical Co.) for 5 min at 25° C. prior to initiation of the assay.
Measurement of MPT and determination of cytochrome c content in supernatants and mitochondrial pellets after MPT. The MPT was assessed using a spectrophotometric assay measuring high amplitude rapid changes in mitochondria volume. Mitochondria (1 mg protein) were incubated in 1 ml of chelex-100-treated respiration buffer (0.1 M NaCl, 10 mM MOPS, pH 7.4) for 10 min at 25° C. and swelling was monitored at 540 nm in a Beckman DU 64 spectrophotometer. Malate and glutamate (1 mM) were added to initiate respiration, and 3 min later rotenone (5 μM), an inhibitor of complex I of the respiratory chain, was also added to the supension. Basal values of mitochondria absorbance were measured for 5 min, and the optical density was monitored for an additional 5 min after addition 200 μM DCA or 80 μM phenylarsine oxide (PhAsO; Sigma Chemical Co.). […]

cytochrome c = experiment: Cytochrome c release from isolated mitochondria after MPT; set-up: species or system rat; details: added to isolated mitochondria before DCA
Procedure: Mitochondria isolation. […] In short, animals were sacrificed by exsanguination under ether anesthesia and the livers removed and rinsed in normal saline. Approximately 10 g of minced liver was homogenized at a speed of 800 rpm using 6 complete up and down strokes with a speed controlled mechanical skill drill and a teflon pestle (Tri-R Model K41, Tri-R Instruments, Rockville Center, N.Y.) in an ice-cold solution of 70 mM sucrose, 220 mM mannitol, 1 mM EGTA and 10 mM HEPES, pH 7.4 as a 10% (wt/vol) homogenate. The homogenate was centrifuged at 600×g for 10 min at 4° C. in an SS-34 rotor in a Sorvall RC5C centrifuge (Sorvall Instruments, Newtown, Conn.), and the postnuclear supernatant was centrifuged at 7,000×g for 10 min at 4° C. […] The pellet was resuspended in 2 mL of homogenate buffer, and 1 mL of the resuspended pellet was carefully layered onto a 35-mL self-generating gradient containing 0.25 M sucrose, 1 mM EGTA and percoll (Pharmacia Fine Chemicals, Piscataway, N.J.) (75:25, vol/vol). The mitochondria were purified by centrifugation at 43,000×g for 30 min at 4° C. using a Beckman Ti60 rotor and a Beckman ultracentrifuge model L8-55 (Beckman Instruments, Inc., Schaumburg, Ill.). The clear supernatant solution removed and the lower turbid layer was resuspended in 30 mL of wash buffer containing 0.1 M KCl, 5 mM 3-(N-morpholino)-propane sulfonic acid (MOPS), and 1 mM EGTA, at pH 7.4 and centrifuged at 7,000×g for 10 min at 4° C. The resulting mitochondria pellet was washed in wash buffer two times. A final wash was carried out in chelex-100-treated buffer (Bio-Rad Laboratories, Richmond, Va.; 200-400 mesh, potassium form) without EGTA. The pellet was suspended in 4 mL of chelex-100-treated resuspension buffer containing 125 mM sucrose, 50 mM KCl, 5 mM HEPES, and 2 mM KH2PO4. The usual yield of mitochondria was approximately 25 mg of protein per gram of liver tissue. Mitochondria were used for experiments within 3 h of isolation. Aliquots were removed for examining the purity of the mitochondria preparation.
Measurement of MPT and determination of cytochrome c content in supernatants and mitochondrial pellets after MPT. The MPT was assessed using a spectrophotometric assay measuring high amplitude rapid changes in mitochondria volume. Mitochondria (1 mg protein) were incubated in 1 ml of chelex-100-treated respiration buffer (0.1 M NaCl, 10 mM MOPS, pH 7.4) for 10 min at 25° C. and swelling was monitored at 540 nm in a Beckman DU 64 spectrophotometer. […] Basal values of mitochondria absorbance were measured for 5 min, and the optical density was monitored for an additional 5 min after addition 200 μM DCA or 80 μM phenylarsine oxide (PhAsO; Sigma Chemical Co.). […]

HuH-7 cells = experiment: TGF-β1-induced apoptosis, Hoechst staining, HuH-7 cells; assay type: cell-based, human; details: 1 nM TGF-β1, 100 μM bile acid, 72 h
Procedure: (§1) Incubation of cells with ethanol, TGF-β1, anti-Fas antibody or okadaic acid. Freshly isolated rat hepatocytes were cultured for 3 h as described above and then incubated with William's E medium supplemented with either 0.5% ethanol, 50 μM UDCA, ethanol plus UDCA, or no addition (control) for 2 h and 4 h. HuH-7 cells were incubated with Dulbecco's medium supplemented with either 1 nM TGF-β1 (R & D Systems, Minneapolis, Minn.), 100 μM UDCA, TGF-β1+UDCA, or no addition (control) for 24 h, 48 h, and 72 h. Hep G2 cells were incubated with Dulbecco's medium supplemented with either 0.5 μg/ml of anti-Fas antibody CH-11 (Upstate Biotechnology, Inc., Lake Placid, N.Y.), 100 μM UDCA, CH-11+UDCA, or no addition for 48 h. Both HuH-7 cells and human osteogenic sarcoma Saos-2 cells were cultured in Dulbecco's medium supplemented with either 50 nM okadaic acid (Boehringer Mannheim Biochemicals, Inc, Indianapolis, Ind.), 100 μM UDCA, okadaic acid+UDCA, or no addition for 48 h. In all the combination groups, cells were pretreated with UDCA alone for 60 min prior to addition of ethanol, TGF-β1, anti-Fas antibody or okadaic acid.
HuH-7 cells were treated with 1 nM TGF-β1, 100 μM of either hyodeoxycholic acid, taurocholic acid, tauroursodeoxycholic acid (Sigma Chemical Co.) or glycoursodeoxycholic acid (Steraloids Inc., Wilton, N.H.), or a combination of TGF-β1 plus the individual bile acids for 72 h. HeLa and Cos-7 cells were incubated with 50 nM okadaic acid, 100 μM of either tauroursodeoxycholic acid or glycoursodeoxycholic acid, or a combination of okadaic acid plus the individual bile acids for 24 h. In the combination groups, cells were pretreated with the bile acid alone for 60 min prior to incuation with TGF-β1 or okadaic acid. In all studies, the medium was gently removed at the indicated times and scored for nonviable cells. The attached cells were fixed for morphologic evaluation of apoptosis.
Morphological evaluation of apoptosis. […] Fluorescence was visualized with a Zeiss standard fluorescence microscope (Carl Zeiss, Inc., Thornwood, N.Y.). Photographs were taken with Kodak Ektar-1000 film (Eastman Kodak Co.). Stained nuclei were scored by blind analysis and categorized according to the condensation and staining characteristics of chromatin. Normal nuclei were identified as noncondensed chromatin dispersed over the entire nucleus. Apoptotic nuclei were identified by condensed chromatin, contiguous to the nuclear membrane, as well as nuclear fragmentation of condensed chromatin. Three fields per dish of approximately 500 nuclei were counted; mean values are expressed as the percent of apoptotic nuclei.

stroke injury = experiment: Stroke injury in a rat model; assay type: in vivo; details: preliminary results
rat primary hepatocytes = experiment: FACS analysis of ΔΨm and ROS, rat primary hepatocytes; assay type: cell-based; details: 1% ETOH, 4 h, hepatocytes
Procedure: A ΔΨm and ROS measurement. ΔΨm and ROS production were measured by FACScan (Becton Dickinson) analysis. Freshly isolated rat hepatocytes were cultured for 3 h as described above and then incubated with William's E medium supplemented with either 100 μM DCA, 100 μM UDCA, equal molar amounts of both, or no bile acid (control), for 6 h. Rat hepatocytes were also cultured with either 1% ethanol, 100 μM UDCA, ethanol+UDCA, or no addition (control) for 4 h. HuH-7 cells, Hep G2 cells, and human osteogenic sarcoma Saos-2 cells were incubated with TGF-β1, anti-Fas antibody or okadaic acid, respectively, for 48 h under the same conditions as outlined above. For combination studies, cells were pretreated with UDCA or hyodeoxycholic acid for 60 min prior to addition of DCA, ethanol, TGF-β1, anti-Fas antibody or okadaic acid. Aliquots of 1.0×10^6 cells were incubated for 15 min at 37° C. with 50 nM 3,3′-dihexyloxacarbocyanine iodide [DiOC6(3)], 2 μM dihydroethidium (HE), or 5 μM 2′,7′-dichlorofluorescin diacetate (H2DCFDA; Molecular Probes, Inc. Eugene, Oreg.) and analyzed by cytofluorometry (Cathcart et al., Anal. Biochem., 134, 111-116 (1983); Zamzami et al., J. Exp. Med., 181, 1661-1672 (1 995); Carter et al., J. Leukocyte Biol., 55, 253-258 (1994)).
Rat primary hepatocytes were incubated with 100 μM DCA and 1% ETOH for 6 h and 4 h, respectively; HuH-7 cells with 1 nM TGF-β1 for 48 h; Hep G2 cells with 0.5 μg/ml anti-Fas antibody (CH-11) for 48 h, and Saos-2 cells with 50 nM okadaic acid (OA) for 48 h. In each combination group, cells were pretreated with 100 μM UDCA alone for 60 min prior to addition of the inducer. Aliquots of 1.0×10^6 cells were incubated for 15 min at 37° C. with 5 μM 2′,7′-dichlorofluorescin diacetate (H2DCFDA) and analyzed by cytofluorometry.

primary rat hepatocytes = experiment: Ethanol-induced apoptosis, Hoechst staining, primary rat hepatocytes; assay type: cell-based; details: 0.5% ethanol
Procedure: as §1
Morphological evaluation of apoptosis. Morphology was performed as described previously (Oberhammer et al., Proc. Natl. Acad. Sci. USA 89, 5408-5412 (1992)). Briefly, after fixation (with 4% formaldehyde in PBS, pH 7.4, for 10 min at room temperature), the cells were incubated with Hoechst dye 33258 (Sigma Chemical Co.) at 5 μg/ml in PBS for 5 min, washed with PBS and mounted with PBS:glycerol (3:1, v/v). Fluorescence was visualized with a Zeiss standard fluorescence microscope (Carl Zeiss, Inc., Thornwood, N.Y.). Photographs were taken with Kodak Ektar-1000 film (Eastman Kodak Co.). Stained nuclei were scored by blind analysis and categorized according to the condensation and staining characteristics of chromatin. Normal nuclei were identified as noncondensed chromatin dispersed over the entire nucleus. Apoptotic nuclei were identified by condensed chromatin, contiguous to the nuclear membrane, as well as nuclear fragmentation of condensed chromatin. Three fields per dish of approximately 500 nuclei were counted; mean values are expressed as the percent of apoptotic nuclei.

## C=CC1=C(C)/C(=C/c2[nH]c(Cc3[nH]c(/C=C4\NC(=O)C(C)=C4C=C)c(C)c3CCC(=O)O)c(CCC(=O)O)c2C)NC1=O [UCB, unconjugated bilirubin]
astrocytes; 17 μM UCB
  apoptosis, increase over control values: about 6 fold
astrocytes; 85.5 μM UCB
  apoptosis, increase over control values: about 11 fold
astrocytes; 85.5 μM UCB, 22 hours
  percentage of apoptotic cells: about 48%
astrocytes; UCB treatment
  cell viability: concentration and time dependent decrease in cell viability

## C[C@H](CCC(=O)NCC(=O)O)[C@H]1CC[C@H]2[C@@H]3[C@@H](O)C[C@@H]4C[C@H](O)CC[C@]4(C)[C@H]3CC[C@]12C [glycoursodeoxycholic acid]
[1]
  effect on DCA-induced MPT / mitochondrial swelling: Inhibition of deoxycholic acid-induced MPT
Cytochrome c
  effect on deoxycholic acid-induced cytochrome c release: Inhibition of deoxycholic acid-induced MPT and cytochrome c release were also observed
HuH-7 cells
  decrease of TGF-β1 apoptosis: 37.5±5.1%

## C[C@H](CCC(=O)NCCS(=O)(=O)O)[C@H]1CC[C@H]2[C@@H]3[C@@H](O)C[C@@H]4C[C@H](O)CC[C@]4(C)[C@H]3CC[C@]12C [tauroursodeoxycholic acid]
[1]
  effect on DCA-induced MPT / mitochondrial swelling: Inhibition of deoxycholic acid-induced MPT
Cytochrome c
  effect on deoxycholic acid-induced cytochrome c release: Inhibition of deoxycholic acid-induced MPT and cytochrome c release were also observed
HuH-7 cells
  decrease of TGF-β1 apoptosis: 45.8±7.9%
Stroke injury
  mitochondria viability following a stroke injury: improvement in mitochondria viability
Stroke injury; pretreatment, compared to control animals
  decrease of the area of stroke damage: up to 50%

## CCO [ethanol]
[1]; substance alone added to isolated mitochondria
  mitochondrial swelling with the substance alone: did not induce mitochondria swelling
Rat primary hepatocytes
  Peroxides Production (%) Inducer: 17.9 ± 5.4%
Primary rat hepatocytes; 2 h
  increase in apoptosis over control values: 10 fold
Primary rat hepatocytes; time not stated (summary)
  increase in apoptosis: 12 fold

## cyclosporine A
[1]; 200 μM DCA, pretreatment 500 μM UDCA or 5 μM cyclosporine A
  inhibition of DCA-induced MPT (mitochondrial swelling): > 45% and 45.8±5.4%
[1]
  effect on DCA-induced MPT / mitochondrial swelling: reduced deoxycholic acid-induced mitochondria swelling

## C[C@H](CCC(=O)NCCS(=O)(=O)O)[C@H]1CC[C@H]2[C@@H]3[C@H](O)C[C@@H]4C[C@H](O)CC[C@]4(C)[C@H]3C[C@H](O)[C@]12C [taurocholic acid]
HuH-7 cells
  inhibition of TGF-β1-induced apoptosis: did not; also recorded: neither hyodeoxycholic acid nor taurocholic acid showed inhibition
